≈ marks a conversion by molar mass, not a printed value. Where two headings read alike, the source gives them in different places.
Experiments:
Type in all cases: in vivo
[1] = test system: Bemisia tabaci; test: Film/vial test on whitefly (BT), susceptible strain SUD-S; details: 48 h; for mortality at 100 ppm: read-out: BT (SUD-S) kill at 100 ppm
Method: (§1) Pesticidal activity was assessed against houseflies, mustard beetles, mites and whitefly using the following methods.
Whitefly (BT) (Bemisia tabaci)
Acetone solutions (0.100 ml) of the test compounds were placed in 10 ml glass vials and evaporated with rotation to deposit a film of the compound. Thirty adult whiteflies were placed inside the vial, then after 60 minutes, the treated insects were transferred onto untreated cotton leaf discs which were kept moist on a bed of agar gel. The temperature was maintained at 25° C. and mortality assessed after 48 hours. Three replicates were used at each of 5 to 7 dose levels per compound. LC50 values were calculated by using a computer software package ("Polo-PC" available from LeOra Software, Berkeley, Calif.). (See M. R. Cahill and B. Hackett in Proceedings Brighton Crop Protection Conference, 1992). The test was carried out using a susceptible strain of whitefly (SUD-S) which was collected in Sudan in 1978 from cotton.
(§2) The values given are LD50 (μg/insect) or LC50 (ppm solution of test compound) unless otherwise specified.

[2] = test system: Tetranychus urticae; test: Immersion test on mites (TU), susceptible strain GSS; details: 72 h
Method: as §1
Mites (TU) (Tetranychus urticae)
25 adult female mites were immersed in 35 μl of a solution of the test compound in a 1:4 acetone-water mixture for 30 seconds. The treated insects were maintained at 21°±2° C. and kill was assessed 72 hours after treatment. […] Three replicates of 25 mites each were used at each dose rate and 5 or 6 dose rates were used per compound under test. LC50 values were calculated in ppm of the solution of the test compound per insect. The test was carried out using a susceptible strain of mites (GSS) supplied by Schering, AG, Berlin.
as §2

[3] = test system: Myzus persicae; test: Aphicidal activity, aphid-dip
Method: (§3) Activity against resistant (R) and susceptible (S) strains of aphid (Myzus persicae) and Aphis gossypiae was assessed using the following two methods.
Entrapment rings of fluon were painted halfway up the inside of 4 cm lengths of glass tubing (1.5 cm diameter), and squares of insect-proof gauze were attached to one end of each tube by elastic bands. Fifteen apterous adults were then gently transferred into the tubes using a sable-hair brush, and the tube sealed with a second gauze square.
Tubes containing aphids were dipped into insecticide solutions for 10 seconds, dried on blotting paper, and then inverted and tapped to cause treated aphids to fall to the unimmersed end of each tube. Handling mortality (usually zero or very slight) was scored after 1 hour, when aphids were transferred onto chinese cabbage leaf-discs (35 mm diameter) on an agar bed (25 mm in depth) in disposible plastic containers (30 mm high) and confined by applying a ring of fluon to the exposed lip of the container. Containers were stored upright, without lids, in a constant environment facility maintained at 25° C. under continuous room lighting. Mortality was assessed at 24, 48 and 72 hours. Two replicates of 15 aphids each were used at each dose rate and 5 or 6 dose rates were used per compound under test.
(§4) The test was carried out using a susceptible strain of aphids (US1L) collected in the field in East Anglia, UK and an extremely resistant strain of aphids (794Jz) (R^3 esterase, sensitive ACHE) collected from glasshouses in the UK.
(§5) The values given are % mortality corrected for control data. The control comprised the test solution without active ingredient.

[4] = test system: Myzus persicae; test: Aphicidal activity, topical application; details: 72 h
Method: as §3
Batches of 10-15 apterous adults were removed from stock cultures and placed on leaf discs (35 mm in diameter) cut from chinese cabbage and held on an agar bed (25 mm deep) in disposable plastic containers (30 mm high). Using a Burkhard micro-applicator aphids were dosed individually with a 0.25 μm droplet of chemical diluted to the required concentration in acetone. control insects were dosed with acetone only. Mortality and other effects were scored at 24 hour intervals up to and including 72 hour post-treatment, the end-point to which the results relate.
as §4, §5

[5] = test system: Phaedon cochleariae Fab; test: Topical test on mustard beetles (PC); details: for PC LD50 (comparative examples): Table 7; for PC (LD50): mustard beetles, topical, 48 h
Method: as §1
Mustard beetles (PC) (Phaedon cochleariae Fab)
A one microliter drop of an acetone solution of the test compound was applied ventrally to adult mustard beetles using a micro drop applicator. The treated insects were maintained for 48 hours after which time kill was assessed. Two replicates each of 20 to 25 mustard beetles were used at each dose level and 5 dose levels were treated comparably. LD50 values were calculated as for houseflies.
as §2

[6] = test system: Musca domestica; test: Topical test on houseflies (MD)
Method: as §1
Houseflies (MD) (Musca domestica)
Female flies were treated on the thorax with a one microliter drop of test compound dissolved in acetone. Two replicates of 15 flies were used at each dose rate and 6 dose rates were used per compound under test. After treatment, the flies were maintained at a temperature of 20°±1° C. and kill was assessed 24 and 48 hours after treatment. LD50 values were calculated in micrograms of test compound per fly (see Sawicki et al., Bulletin of the World Health Organisation, 35, 893 (1966) and Sawicki et al., Entomologia and Exp. Appli 10, 253, (1967).
as §2

[7] = resistant strain 794JZ, read-out: Aphid-dip result, % kill M.P. 794JZ
[8] = susceptible strain USIL, read-out: Aphid-dip result, % kill M.P. USIL
[9] = susceptible strain USIL, read-out: Topical aphid results, % kill M.P. USIL
[10] = read-out: BT LC50 (comparative examples)
[11] = read-out: TU LC50 (comparative examples)

With `CC(=O)OC1=C(CC[Si](C)(C)C)C(=O)c2ccccc2C1=O` [Example 4, 2-ethanoyloxy-3-(2'-trimethylsilylethyl)-1,4-naphthoquinone] the LC50 ([1]; read-out: BT (SUD-S) (LC50)) was 2.9 µg/mL (≈ 9.16 µM), the LC50 ([2]; read-out: TU (GSS) (LC50)) was 45 µg/mL (≈ 142 µM) and the mortality at 100 ppm [3, 7] was 19%. For the same compound, the mortality at 100 ppm [3, 8] was 19%.
Work on `CCC(=O)OC1=C(CCCCCCCCC[Si](C)(C)C)C(=O)c2ccccc2C1=O` [Example 22, 2-propanoyloxy-3-(9-trimethylsilylnonyl)-1,4-naphthoquinone] yielded a mortality at 100 ppm [4, 9] of 37%.
Work on `C[Si]1(CCCCCCCCC2=C(O)C(=O)c3ccccc3C2=O)CCCC1` [Example 18, 2-Hydroxy-3-(8-(1-methyl-(tetramethylenesilyl))octyl)-1,4-naphthoquinone] yielded a mortality at 100 ppm [4, 9] of 59% and an LC50 ([2]; read-out: TU (GSS) (LC50)) of 3.6 µg/mL (≈ 9.36 µM).
With `CC[Si](CC)(CC)CCCCCCCCC1=C(O)C(=O)c2ccccc2C1=O` [Example 15] the mortality at 100 ppm [4, 9] was 58%, the LC50 ([1]; read-out: BT (SUD-S) (LC50)) was 22 µg/mL (≈ 54.9 µM) and the LC50 ([2]; read-out: TU (GSS) (LC50)) was 5.2 µg/mL (≈ 13 µM).
With `C[Si]1(CCCCCCCCC2=C(O)C(=O)c3ccccc3C2=O)CCCCC1` [Example 19, 2-hydroxy-3-(8-(1-methyl-(pentamethylenesilyl))octyl)-1,4-naphthoquinone] the mortality at 100 ppm [1] was 13%.
`CCCCCCCCCCC1=C(O)C(=O)c2ccccc2C1=O` [--(CH2)9 CH3, reference compound] was tested, and the “PC LD50 (comparative examples)” value [5] was 1.9 μg/insect.
`CCC[Si](C)(C)CCCCCCCCC1=C(O)C(=O)c2ccccc2C1=O` [Example 17] was tested, and the mortality at 100 ppm [4, 9] was 88%, the LC50 ([1]; read-out: BT (SUD-S) (LC50)) was 13 µg/mL (≈ 33.6 µM) and the LC50 ([2]; read-out: TU (GSS) (LC50)) was 8.4 µg/mL (≈ 21.7 µM).
In the case of `C[Si](C)(C)CCCCC1=C(O)C(=O)c2ccccc2C1=O` [Example 8], the mortality at 1000 ppm ([4]; resistant strain 794JZ, 1000 ppm, read-out: Topical aphid results, % kill M.P. 794JZ) is reported as 100%, the mortality at 100 ppm [4, 9] is reported as 90% and the “MD (LD50)” value ([6]; houseflies, topical on thorax, kill assessed 24 and 48 h) is reported as 1.8 μg/insect. The LC50 ([2]; read-out: TU (GSS) (LC50)) was 9.2 µg/mL (≈ 30.4 µM), the mortality at 100 ppm [3, 7] was 100% and the mortality at 100 ppm [3, 8] was 90%.
With `C[Si](C)(C)CC1=C(O)C(=O)c2ccccc2C1=O` [Example 6] the LC50 ([1]; read-out: BT (SUD-S) (LC50)) was 1.7 µg/mL (≈ 6.53 µM).
Compound `CC[Si](C)(C)CCCCCCCCC1=C(O)C(=O)c2ccccc2C1=O` [Example 14, 2-hydroxy-3(8-(dimethylethylsilyl)octyl)-1,4-naphthoquinone] has a mortality at 100 ppm [4, 9] of 74% and an LC50 ([1]; read-out: BT (SUD-S) (LC50)) of 15 µg/mL (≈ 40.3 µM).
In the case of `CCCCCCCCCCCCC1=C(O)C(=O)c2ccccc2C1=O` [--(CH2)11 CH3, reference compound], the LC50 [1, 10] is reported as > 100 µg/mL and the LC50 [2, 11] is reported as < 60 µg/mL.
`CCCCCCCCC1=C(O)C(=O)c2ccccc2C1=O` [--(CH2)7 CH3, reference compound] was tested, and the “MD LD50 (comparative examples)” value ([6]; Table 7) was 1.9 μg/insect and the “PC LD50 (comparative examples)” value [5] was 0.78 μg/insect.
`CCCCCCC1=C(O)C(=O)c2ccccc2C1=O` [--(CH2)5 CH3, reference compound] was tested, and the LC50 [1, 10] was 9.4 µg/mL (≈ 36.4 µM) and the LC50 [2, 11] was 170 µg/mL (≈ 658 µM).
`CC(=O)OC1=C(CCCCCCCCC[Si](C)(C)C)C(=O)c2ccccc2C1=O` [Example 21, 2-ethanoyloxy-3-(9-trimethylsilylnonyl)-1,4-naphthoquinone] was tested, and the mortality at 100 ppm ([4]; resistant strain 794JZ, read-out: Topical aphid results, % kill M.P. 794JZ) was 89%, the mortality at 125 ppm ([4]; susceptible strain USIL, 125 ppm, read-out: Topical aphid results, % kill M.P. USIL) was 66% and the LC50 ([1]; read-out: BT (SUD-S) (LC50)) was < 100 µg/mL. The LC50 ([2]; read-out: TU (GSS) (LC50)) was 2 µg/mL (≈ 4.82 µM) and the mortality at 100 ppm [3, 8] was 66%.
In the case of `CCC[Si](CCC)(CCC)CCCCCCCCC1=C(O)C(=O)c2ccccc2C1=O` [Example 16], the mortality at 100 ppm [4, 9] is reported as 24%, the mortality at 100 ppm [1] is reported as 79% and the “PC (LD50)” value [5] is reported as > 20 μg/insect.
`C=COC(=O)OC1=C(CCCCCCCCC[Si](C)(C)C)C(=O)c2ccccc2C1=O` [Example 23, 2-vinylcarbonato-3-(9-trimethylsilylnonyl)-1,4-naphthoquinone] gave a mortality at 100 ppm [4, 9] of 63% and a mortality at 100 ppm [1] of 32%.
`CCCC1=C(O)C(=O)c2ccccc2C1=O` [--(CH2)2 CH3, reference compound] was tested, and the LC50 [1, 10] was 80 µg/mL (≈ 370 µM).
`CCOCOC1=C(CCCCCCCCC[Si](C)(C)C)C(=O)c2ccccc2C1=O` [Example 24, 2-ethoxymethoxy-3-(9-trimethylsilylnonyl)-1,4-naphthoquinone] showed a mortality at 100 ppm [4, 9] of 16% and a mortality at 100 ppm [1] of 19%.
For `C[Si](C)(C)CC=CC1=C(O)C(=O)c2ccccc2C1=O` [Example 20, 2-hydroxy-3-(3-trimethylsilyl-1-propenyl)-1,4-naphthoquinone], the LC50 ([1]; read-out: BT (SUD-S) (LC50)) was 30 µg/mL (≈ 105 µM), the “PC (LD50)” value [5] was > 20 μg/insect and the LC50 ([2]; read-out: TU (GSS) (LC50)) was 21 µg/mL (≈ 73.3 µM).
